The text below walks through data of patent publication US12318452B2, “Degraders of WEE1 kinase” (DANA-FARBER CANCER INSTITUTE, INC., priority 2018, dated 2025).

Common to all, as to assay type: cell-based
In one assay the target is Wee1 (Homo sapiens, UniProt P30291). Description: Cellular degradation of Wee1 by immunoblot, 6-hour treatment of MOLT4 cells. Details: endogenous in cells; host or cells: MOLT4 (wild type; CRBN-/- as control). As to conditions: for Wee1 degradation / percent Wee1 degradation at 1 µM: MOLT4 cells; for Wee1 degradation: immunoblot; for percent Wee1 degradation at 1 µM: MOLT-4, 1 μM, approximated by immunoblot, read-out: Extent of Degradation of Wee1. How it is done:
General Protocol: HT-29, MOLT4 wild type (WT) or CRBN^-/- cells were plated in a 6 well plate and treated for 6 hours with the indicated concentrations of the inventive compounds and control. HT-29 cells were cultured in McCoy's Media supplemented with 10% FBS and 1% Penicillin/Streptomycin. MOLT4 WT and CRBN^-/- cells were cultured in Roswell Park Memorial Institute (RPMI) medium supplemented with 10% FBS and 1% Penicillin/Streptomycin. Mycoplasma testing was performed every month and all lines were negative. Immunoblotting: Cells were washed with phosphate-buffered saline (PBS) and then lysed using radioimmunoprecipitation assay (RIPA) buffer supplemented with protease and phosphatase inhibitor cocktail (Roche) on ice for 15 minutes. The lysates were centrifuged at 14,000 rpm for 15 minutes at 4° C. and protein was quantified by bicinchoninic acid (BCA) assay (PierceTM). Primary antibodies used include: Wee1 ([…]) (Cell Signaling Technology®, 13084S), polo-like kinase 1 (PLK1) (Thermo Fisher Scientific, 37-7000), phosphor-cdc2 (Y15) (10A11) (Cell Signaling Technology®, […]), phospho-histone H3 ([…]) (Cell Signaling Technology®, […]), Ikaros ([…]) (Cell Signaling Technology®, 14859S), Aiolos ([…]) (Cell Signaling Technology®, 15103), casein kinase 1 alpha (Abcam®, 108296), β-actin (Cell Signaling Technology®, 8H10D10). FIG. 2A is an immunoblot showing that compound 13 degraded Wee1 after a 6-hour treatment in MOLT4 cells, and induced the downstream changes expected from Wee1 loss-including a decrease in phosphorylated cyclin-dependent kinase 1 (pCDK1) (Y15) and an increase in pH 3. […] Degradation of Wee1 by compound 13 was rescued in MOLT4 CRBN^-/- cells. MOLT4 WT and CRBN^-/- cells were plated in a 6-well plate at 2.25 million cells per well in 3 mL media (RPMI+10% FBS+1% Penn/Strep). After treatment with the indicated concentrations of candidate compounds, cells were incubated for 6 hours at 37° C. 5% CO2. To harvest, the cells were washed 1× with cold PBS, then collected by centrifugation. Cell pellets were lysed in RIPA buffer with protease and phosphatase inhibitors (Roche). Lysates were clarified by centrifugation, and protein concentrations were normalized using a BCA assay (Thermo ScientificTM). The samples were diluted with 4×LDS+10% β-mercaptoethanol, and were boiled at 95° C. for 5 minutes. Proteins of interest were then assessed by western blotting. […] The experimental protocol was the same as in Example 28.

A further assay concerns MOLT4 cells. The experiment in a line: Cell cycle analysis by propidium iodide staining. Here is the method: MOLT4 cells were plated at 1.5 million cells per well in a 6-well plate, with 3 mL of media per well. Immediately after plating, cells were treated with the indicated concentrations of the indicated compound. At the indicated time points, cells were collected by transferring each well to a 15 mL conical, centrifuging (1000 rpm for 3 min), and then washing the cell pellet 3× with cold PBS. Cell pellets were then fixed with 1 mL cold 80% ethanol in PBS at 4° C. overnight. The cell pellets were then washed by adding 1 mL of PBS and then centrifuging (1500 rpm for 5 minutes), followed by aspiration of the PBS/ethanol mix. Cells were resuspended in cell cycle staining solution (100 μg/mL of RNAse A (Roche, 10109169001) and 50 μg/mL propidium iodide (Life Technologies™, P1304MP), diluted in PBS, and incubated for 10 minutes at room temperature. Cell cycle data was acquired by flow cytometry on a Guava® easyCyte™ flow cytometer (Millipore™) using the InCyte™ software. Data was analyzed using FlowJo®. N=3 biological replicates were used for each treatment condition.

For assay [1], the system named is 300 suspension and hematopoietic cancer cell lines. Description: PRISM pooled cytotoxicity assay.

Usually IC50 stands for the concentration that inhibits the measured activity by half.

Wee1, sequence (P30291 whole entry): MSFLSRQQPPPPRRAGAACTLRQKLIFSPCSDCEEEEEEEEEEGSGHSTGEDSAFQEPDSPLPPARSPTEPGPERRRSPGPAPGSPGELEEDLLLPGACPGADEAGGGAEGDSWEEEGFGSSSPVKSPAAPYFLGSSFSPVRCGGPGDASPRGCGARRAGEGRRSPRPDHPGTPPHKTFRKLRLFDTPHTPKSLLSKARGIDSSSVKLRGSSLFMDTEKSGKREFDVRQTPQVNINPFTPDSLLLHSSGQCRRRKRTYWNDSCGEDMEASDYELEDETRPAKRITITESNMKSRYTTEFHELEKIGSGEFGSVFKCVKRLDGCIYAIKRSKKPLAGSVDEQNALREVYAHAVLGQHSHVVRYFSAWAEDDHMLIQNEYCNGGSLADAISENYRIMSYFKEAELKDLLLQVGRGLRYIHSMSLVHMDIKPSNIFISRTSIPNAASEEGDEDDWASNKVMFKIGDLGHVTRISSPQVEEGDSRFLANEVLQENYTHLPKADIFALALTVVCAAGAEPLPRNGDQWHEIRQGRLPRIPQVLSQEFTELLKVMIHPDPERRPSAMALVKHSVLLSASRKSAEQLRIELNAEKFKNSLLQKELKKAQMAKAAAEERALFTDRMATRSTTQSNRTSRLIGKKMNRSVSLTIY

With `C=CCn1c(=O)c2cnc(Nc3ccc(N4CCN(CCCNc5cccc6c5C(=O)N(C5CCC(=O)NC5=O)C6=O)CC4)cc3)nc2n1-c1cccc(C(C)(C)O)n1` (centres unmarked) [Compound 13, 4-((3-(4-(4-((2-allyl-1-(6-(2-hydroxypropan-2-yl)pyridin-2-yl)-3-oxo-2,3-dihydro-1H-pyrazolo[3,4-d]pyrimidin-6-yl)amino)phenyl)piperazin-1-yl)propyl)amino)-2-(2,6-dioxopiperidin-3-yl)isoindoline-1,3-dione], on Wee1 (MOLT4 CRBN−/− cells), the “Wee1 degradation in CRBN−/− cells” value is “rescued”. On Wee1, the Wee1 degradation entry was “degraded Wee1” and the percent Wee1 degradation at 1 µM was more than 50%. In the assay with MOLT4 cells (100 nM, 24-hr treatment, MOLT4 cells, control 19%), this molecule gave a G2-M cells of 34%. Besides, the “Cell cycle effects in CRBN−/− cells” value in the assay on MOLT4 cells (CRBN−/− MOLT4 cells, 24 hours) is “absent”. In addition, the “Fold lower doses than AZD1775 inducing premature mitotic entry” value in the assay with MOLT4 cells (MOLT4 cells) came out at 10 fold. Also, in assay [1] (almost all of the lines tested, data not shown, read-out: IC50 values in PRISM panel), the half-inhibitory concentration (IC50) was less than 1000 nM.
For `C=CCn1c(=O)c2cnc(Nc3ccc(N4CCN(CCCNc5cccc6c5C(=O)N(C5CCC(=O)N(C)C5=O)C6=O)CC4)cc3)nc2n1-c1cccc(C(C)(C)O)n1` (centres unmarked) [Compound 20, 4-((3-(4-(4-((2-allyl-1-(6-(2-hydroxypropan-2-yl)pyridin-2-yl)-3-oxo-2,3-dihydro-1H-pyrazolo[3,4-d]pyrimidin-6-yl)amino)phenyl)piperazin-1-yl)propyl)amino)-2-(1-methyl-2,6-dioxopiperidin-3-yl)isoindoline-1,3-dione], at Wee1, the Wee1 degradation entry is reported as “did not degrade Wee1” and the percent Wee1 degradation at 1 µM is less than 25%. Further, the “Effect on the cell cycle” value in the assay on MOLT4 cells (100 nM, 24-hr, MOLT4 cells) is given as “did not appreciably affect the cell cycle”. In assay [1], the “Potency in PRISM panel relative to compound 13” value is “uniformly less potent”.
